Data as given in patent US20190209514A1, “Treatment of Bladder Cancer by Local Administration of Taxane Particles” (CRITITECH, INC., priority 2018, published 2019).
“And” between values parts separate entries of the source, which are not always exact repeats. Equal values may be shown once. “Also recorded” adds a separate entry of the source. Marks after values point to notes of the source that are not given here. Values belong to the compound of their own block, whether it stands above or below them.

How the values were obtained:
[1] = Docetaxel dissolution study, methanol/water 15/85, USP Apparatus II; format: physicochemical; details: for Docetaxel Dissolution time course: methanol/water 15/85
Protocol: The procedures used to determine the dissolution rates are as follows. […] Beads were transferred to a stainless steel mesh container and placed in the dissolution bath containing methanol/water 50/50 (v/v) media at 37° C., pH 7, and a USP Apparatus II (Paddle), operating at 75 rpm. At 10, 20, 30, 60, and 90 minutes, a 5 mL aliquot was removed, filtered through a 0.22 μm filter and analyzed on a UV/VIS spectrophotometer at 227 nm. Absorbance values of the samples were compared to those of standard solutions prepared in dissolution media to determine the amount of material dissolved. […] At 5, 15, 30, 60, 120 and 225 minutes, a 5 mL aliquot was removed, filtered through a 0.22 μm filter, and analyzed on a UV/VIS spectrophotometer at 232 nm. Absorbance values of the samples were compared to those of standard solutions prepared in dissolution media to determine the amount of material dissolved.
At 5, 15, 30, 60, 120 and 225 minutes, a 5 mL aliquot was removed, filtered through a 0.22 μm filter, and analyzed on a UV/VIS spectrophotometer at 232 nm. Absorbance values of the samples were compared to those of standard solutions prepared in dissolution media to determine the amount of material dissolved.

[2] = Particle size analysis (light obscuration / laser diffraction); format: physicochemical
Description: The particle size of the taxane particles can be determined by a particle size analyzer instrument and the measurement is expressed as the mean diameter based on a number distribution (number). A suitable particle size analyzer instrument is one which employs the analytical technique of light obscuration, also referred to as photozone or single particle optical sensing (SPOS). A suitable light obscuration particle size analyzer instrument is the ACCUSIZER, such as the ACCUSIZER 780 SIS, available from Particle Sizing Systems, Port Richey, Fla. Another suitable particle size analyzer instrument is one which employs laser diffraction, such as the Shimadzu SALD-7101.
Particle size was analyzed by both light obscuration and laser diffraction methods. An Particle Sizing Systems AccuSizer 780 SIS system was used for the light obscuration method and Shimadzu SALD-7101 was used for the laser diffraction method.
The vials were vortexed for approximately 10 seconds and then sonicated in a sonic bath approximately 1 minute.
The vial was vortexed for approximately 10 seconds and then sonicated in a sonic bath for approximately 2 minutes. This suspension was used for laser diffraction analysis. Unused suspension was poured into a 125 mL particle-free plastic bottle, which was then filled to approximately 100 mL with filtered dispersant. The suspension was vortex for approximately 10 seconds and then sonicated in the sonic bath for approximately 2 minutes. This diluted suspension was used for light obscuration analysis.
A background test was first performed prior to analyzing particles on the AccuSizer 780 SIS. A new particle-free plastic bottle was filled with blank suspension solution by pumping from a reservoir, using a peristaltic pump, through a 0.22 μm Millipore filter and into the bottle. A background analysis was run to ensure the particle/mL count was below 100 particles/mL. […] Once the analysis was completed, the background data was removed and any measurement with less than four counts was removed.
To analyze particles on SALD-7101 using a batch cell, the analysis was started by choosing Manual Measurement. The refractive index was set as 1.5 to 1.7. The batch cell was filled with filtered dispersant just past the etched line. The blank measurement was ran. […] The measurements were executed, and the resulting graph with the highest level of confidence was selected; background was automatically accounted for.

[3] = IV docetaxel 3 cycles; of 7 tumors measured; day of death or euthanasia
[4] = tested on: UM-UC-3 bladder cancer cell line (ATCC-CRL-1749) tumors; assay: Xenograft study: histology (H&E) and immunohistochemistry of tumor site tissue; format: in vivo, Hsd:Athymic Nude-Foxn1nu nude mice
[5] = tested on: UM-UC-3 bladder cancer cell line (ATCC-CRL-1749) tumors; assay: Human bladder cancer (UM-UC-3) mouse xenograft study, tumor volume; format: in vivo, Hsd:Athymic Nude-Foxn1nu nude mice
Protocol: Tumor volume was determined with calipers. […] Animals were weighed 2×/week.
At day 18 after tumor implant, when average tumor size was between 50-325 mm^3, animals were sorted into five groups with equal average tumor sizes and were treated as shown in Table 8 below.
The second treatments (2nd cycle) occurred 7 days following first treatment (1st cycle) and third treatments (3rd cycle) occurred 14 days following the first treatment. The docetaxel solution IV was administered via the tail vein.
The test formulations were prepared as follows: • Vehicle (Control): Diluted 1 ml of the 1% Polysorbate 80/8% Ethanol in normal saline (0.9% Sodium Chloride for Injection) reconstitution solution with 1.5 mL of normal saline (0.9% Sodium Chloride for Injection, USP). […] Vigorously hand shook the vial with inversions for 1 minute. […] Vortexed to mix.
Tumor volumes were determined 2×/week for the duration of the study (61 days). The results of the study are shown in FIG. 4, FIG. 5, FIG. 6, FIG. 7, FIG. 8, FIG. 9, FIG. 10, FIG. 11, FIG. 12 & FIG. 13. […] These observations are also reflected in FIG. 5, FIG. 6, FIG. 7, FIG. 8, FIG. 9, FIG. 12 & FIG. 13.

[6] = Paclitaxel dissolution study, methanol/water 50/50, USP Apparatus II; format: physicochemical; details: methanol/water 50/50 (v/v), 37° C., pH 7, paddle 75 rpm
Protocol: Beads were transferred to a stainless steel mesh container and placed in the dissolution bath containing methanol/water 50/50 (v/v) media at 37° C., pH 7, and a USP Apparatus II (Paddle), operating at 75 rpm. […] Absorbance values of the samples were compared to those of standard solutions prepared in dissolution media to determine the amount of material dissolved. […] Absorbance values of the samples were compared to those of standard solutions prepared in dissolution media to determine the amount of material dissolved.
Beads were transferred to a stainless steel mesh container and placed in the dissolution bath containing methanol/water 50/50 (v/v) media at 37° C., pH 7, and a USP Apparatus II (Paddle), operating at 75 rpm. At 10, 20, 30, 60, and 90 minutes, a 5 mL aliquot was removed, filtered through a 0.22 μm filter and analyzed on a U(V/V)is spectrophotometer at 227 nm. Absorbance values of the samples were compared to those of standard solutions prepared in dissolution media to determine the amount of material dissolved.

[7] = BET specific surface area (SSA); format: physicochemical
Protocol: As used herein, the “specific surface area” (SSA) is the total surface area of the taxane particle per unit of taxane mass as measured by the Brunauer-Emmett-Teller (“BET”) isotherm by the following method: a known mass between 200 and 300 mg of the analyte is added to a 30 mL sample tube. […] The automated test is then carried out using the BETWIN® software package and the surface area of each sample is subsequently calculated. As will be understood by those of skill in the art, the “taxane particles” can include both agglomerated taxane particles and non-agglomerated taxane particles; since the SSA is determined on a per gram basis it takes into account both the larger agglomerated and smaller non-agglomerated taxane particles in the composition. The agglomerated taxane particles are defined herein as individual taxane particles that are formed by the agglomeration of smaller particles which fuse together forming the larger individual taxane particles, all of which occurs during the processing of the taxane particles. […]
A known mass between 200 and 300 mg of the analyte was added to a 30 mL sample tube. […] The automated test was then carried out using the BETWIN® software package and the surface area of each sample was subsequently calculated.

[8] = Bulk density (not tapped); format: physicochemical
Protocol: As used herein, the “specific surface area” (SSA) is the total surface area of the taxane particle per unit of taxane mass as measured by the Brunauer-Emmett-Teller (“BET”) isotherm by the following method: a known mass between 200 and 300 mg of the analyte is added to a 30 mL sample tube. […] The automated test is then carried out using the BETWIN® software package and the surface area of each sample is subsequently calculated. As will be understood by those of skill in the art, the “taxane particles” can include both agglomerated taxane particles and non-agglomerated taxane particles; since the SSA is determined on a per gram basis it takes into account both the larger agglomerated and smaller non-agglomerated taxane particles in the composition. The agglomerated taxane particles are defined herein as individual taxane particles that are formed by the agglomeration of smaller particles which fuse together forming the larger individual taxane particles, all of which occurs during the processing of the taxane particles. The BET specific surface area test procedure is a compendial method included in both the United States Pharmaceopeia and the European Pharmaceopeia. […]
The mass of the drug was measured to a nearest 0.1 mg, the volume was determined to the nearest 0.1 mL and the density calculated.

[9] = IV Docetaxel 3 cycles, 2 animals

SMILES: CC(=O)O[C@@]12CO[C@@H]1C[C@H](O)[C@@]1(C)C(=O)[C@H](O)C3=C(C)[C@@H](OC(=O)[C@H](O)[C@@H](NC(=O)OC(C)(C)C)c4ccccc4)C[C@@](O)([C@@H](OC(=O)c4ccccc4)[C@H]21)C3(C)C [Docetaxel Raw Material, docetaxel]
Docetaxel Dissolution time course ([1]; 0 minutes): 0.0%
Docetaxel Dissolution time course ([1]; 5 minutes): 3.2%
Docetaxel Dissolution time course ([1]; 15 minutes): 6.9%
Docetaxel Dissolution time course ([1]; 30 minutes): 11.2%
Docetaxel Dissolution time course ([1]; 60 minutes): 16.4%
Docetaxel Dissolution time course ([1]; 120 minutes): 22.4%
Docetaxel Dissolution time course ([1]; 225 minutes): 26.8%
Dissolution (30 min) ([1]; docetaxel, methanol/water 15/85 (v/v), 37° C., pH 7, paddle 75 rpm, 30 min): 11%
Number Mean (um) [2]: 1.58 um
Volume Mean (um) [2]: 5.05 um

SMILES: CC(=O)O[C@@]12CO[C@@H]1C[C@H](O)[C@@]1(C)C(=O)[C@H](O)C3=C(C)[C@@H](OC(=O)[C@H](O)[C@@H](NC(=O)OC(C)(C)C)c4ccccc4)C[C@@](O)([C@@H](OC(=O)c4ccccc4)[C@H]21)C3(C)C [Docetaxel, docetaxel]
tumors with docetaxel levels above the limit of quantitation (1 ng/g) [3]: 1
histology general observations (H&E) ([4]; Docetaxel Solution IV 3 cycles): many viable appearing tumor masses with some macrophage and occasional lymphocytic response along with some tumor necrosis
Maximum tumor size on slide / size of viable nodules (mm), per animal ([4]; IV Docetaxel 3 cycles (cases B1, B3)): 11 mm and 15 mm
Macrophage infiltrate density (CD68): animals graded Mild [4, 9]: 2
Maximum size of viable invasive carcinoma on the slide: animals with >10 mm [4, 9]: 2*
Percentage of tumor showing necrosis: animals with 11-50% [4, 9]: 1
Percentage of tumor showing necrosis: animals with 50-90% [4, 9]: 1
tumor volume ([5]; Docetaxel Solution 30 mg/kg IV, 3 weekly cycles, to Day 61): Tumor volumes decreased initially; also recorded: subsequently increased; also recorded: somewhat effective at treating small tumors, but not very effective in treating large tumors
Necropsy volume (mm^3), per animal ([5]; IV Docetaxel 3 cycles (B1, B3)): 2872 mm^3 and 1652 mm^3

Dissolution (30 min) [6]: 18%
Surface Area (m^2/g) ([7]; BET): 10.4 m^2/g
BET surface area ([7]; Example 1 results text): 7.25 m^2/g
Number Mean (um) [2]: 1.16 um
Volume Mean (um) [2]: 1.29 um
Bulk Density [8]: 0.26 g/mL
SMILES: CC(=O)O[C@H]1C(=O)[C@@]2(C)[C@H]([C@H](OC(=O)c3ccccc3)[C@]3(O)C[C@H](OC(=O)[C@H](O)[C@@H](NC(=O)c4ccccc4)c4ccccc4)C(C)=C1C3(C)C)[C@]1(OC(C)=O)CO[C@@H]1C[C@@H]2O [Paclitaxel Raw Material, paclitaxel]
